Laboratory results published in US12215389B2, “Compositions for detecting epigenetic modifications” (EXACT SCIENCES CORPORATION, priority 2007, dated 2025).

Tested on: methylated gene promoters in FFPE tissue DNA
Assay: Real-time MSP on colon tissue samples
Design: species or system human
Conditions: for Specificity (%) / Sensitivity (%): 50 cases (adenoma + carcinoma) vs 39 controls, tissue
Protocol: Real-time MSP was applied on a 7900HT fast real-time PCR system (Applied Biosystems). 2.4 μl of the modified DNA (equivalent to 2.5 μg unconverted DNA) was added to a PCR mix (total volume 12 μl) containing buffer (16.6 mM (NH4)2SO4, 67 mM Tris (pH 8.8), 6.7 mM MgCl2, 10 mM β-mercaptoethanol), dNTPs (5 mM), forward primer (6 ng), reverse primer (18 ng), molecular beacon (0.16 μM), BSA (0.1 μg), and Jumpstart DNA Taq polymerase (0.4 units; Sigma Aldrich). Cycle program used was as follows: 5 minutes 95° C., followed by 45 cycles of 30 seconds 95° C., 30 seconds 57° C. (51° C. for APC), and 30 seconds 72° C., followed by 5 minutes 72° C. A standard curve (2×106—20 copies) was included to determine copy numbers of unknown samples by interpolation of their Ct values to the standard curve.
Marker selection in colon tissue: Based on re-expression, 224 different gene assays representing 145 gene promotors were tested on the Base5 methylation profiling platform (data not shown, see reference 1 for details). The 37 most differentially methylated gene sequences assessing 29 gene promoters were validated on retrospectively collected tumors from 65 colorectal cancer patients (all stages) and 74 distant resection ends (histopathologically normal) using real-time MSP. Several markers reliably detected CRC in those tissue samples (data not shown). The results were confirmed on an independent test set containing 39 tissue controls (non-cancerous), 34 carcinomas and 16 adenomas. Several combinations of the tested markers reliably detected CRC with high specificity and sensitivity.
The ten best performing markers GATA5, GATA4, SFRP1, SFRP2, APC, MGMT, NDRG4, OSMR, JPH3 and ADAM23 were validated with primer sets and beacon probes as specified in Table 24. In addition to the colon test genes, the independent reference gene β-Actin (ACT) was also measured. The ratios between the colon test genes and ACT were calculated, and are the test result of the assay.
Marker candidates identified by re-expression were screened using 37 real-time methylation specific PCR (real-time MSP) assays. These assays were used to assess the methylation status of 29 gene promoters in 293 formalin-fixed paraffin-embedded (FFPE) tissue samples collected from various clinics. Samples included 99 carcinomas of various stages, 16 adenomas, 63 samples from patients with cancer other than CRC (20 breast [stages I-III], 22 bladder [stages I-III], 21 lung [stages I and II]), 39 samples from patients with no evidence of cancer and 76 distant resection ends (histopathologically normal) from CRC patients. These samples were divided into training and independent test sets, and used to select the gene methylation assays best able to discriminate between cancerous and non-cancerous samples. The training set included retrospectively collected tumors from 65 colorectal cancer patients (all stages) and 74 distant resection ends. Using the 10 best performing genes the results were confirmed on an independent test set containing 59 samples from patients with cancer other than CRC, 39 non-cancerous controls and 50 cancer cases (34 carcinomas and 16 adenomas).
The individual performance of the 10 best performing tissue markers OSMR, SFRP1, GATA4, SFRP2, NDRG4, ADAM23, GATA5, MGMT, APC and JPH3 is shown in FIG. 7, when the analytical cut-off was set to give 100% specificity, except for JPH3 where a specificity of 95% was obtained (based on the 39 non-cancerous controls). In addition to the colon test genes, the independent reference gene β-Actin (ACT) was also measured. The ratios between the colon test genes and ACT were calculated, and are the test result of the assay.

[1] = 16 adenoma tissue samples vs 39 controls
[2] = 34 carcinoma tissue samples vs 39 controls
[3] = second cut off ratio, between ( )

Substance: GATA5 (DNA AGTTCGTTTTTAGGTTAGTTTTCGGC; listed as DNA, chemistry not given here)
- Sensitivity [1]: 63%
- Specificity [1]: 100%
- Sensitivity [2]: 53%
- Specificity [2]: 100%
- Specificity (%): 100%
- Sensitivity (%) (first cut off ratio): 56%
- Sensitivity (%) [3]: (66) %

Substance: SFRP1 (DNA TGTAGTTTTCGGAGTTAGTGTCGCGC; listed as DNA, chemistry not given here)
- Sensitivity [1]: 88%
- Specificity [1]: 100%
- Sensitivity [2]: 82%
- Specificity [2]: 100%
- Specificity (%): 100%
- Sensitivity (%) (first cut off ratio): 84%
- Sensitivity (%) [3]: (92) %
